Measured values published in patent publication US20230404981A1, “[…] ACTIVE COMPOUND FORMULATIONS” (priority 2020, published 2023).

Assay: in vivo
Conditions: Sprague Dawley, rat; for AUC(0-t) / Cmax / Tmax: im
Experimental: An in vivo pharmacology study was completed in Sprague Dawley rats over 14 days, to determine the drug release kinetics of 50, 100, or 200 mg/kg doses of niclosamide administered as intramuscular injections of an aqueous dispersion of niclosamide nanoparticles.
Each animal received two 0.2 mL injections, one in each thigh, of one of the 25, 50, or 100 mg/kg of niclosamide dispersions for a total dose of 50, 100, or 200 mg/kg of niclosamide in each animal.
Blood samples were taken via tail vein bleed 1, 3, 6 and 24 hours post dose followed by bleeds at day 3, 4, 7 and 14. Niclosamide concentrations from the plasma samples were quantified utilising a previously validated liquid chromatography mass spectrometry (LCMS) method.

## O=C(Nc1ccc([N+](=O)[O-])cc1Cl)c1cc(Cl)ccc1O [niclosamide, 5-chloro-N-(2-chloro-4-nitrophenyl)-2-hydroxybenzamide]
  concentration at 24 h: 140000 ng/g
50 mg/kg
  AUC(0-t): 24800 ng·h/mL
  Cmax: 1410 ng/mL
  Tmax: 2.5 h
100 mg/kg
  AUC(0-t): 47500 ng·h/mL
  Cmax: 2040 ng/mL
  Tmax: 2 h
200 mg/kg
  AUC(0-t): 58300 ng·h/mL
  Cmax: 3130 ng/mL
  Tmax: 3 h
